What all share (assay): AK assay 384-well format, Prestwick library screening
The subject of one assay is E. faecium. The class given is cell-based, Enterococcus faecium. Conditions: 50 μM final drug concentration; for fold induction at 50 µM: Enterococcus faecium, 3 h.
Assay [1] has as its system S. aureus strain USA300-0114. The class given is cell-based, Staphylococcus aureus. Conditions: 50 μM final drug concentration; for fold induction at 50 µM: Staphylococcus aureus, USA300, 3 h.
In a further assay the test system is K. pneumoniae. In kind it is cell-based, Klebsiella pneumoniae. Conditions: 50 μM final drug concentration; for fold induction at 50 µM: Klebsiella pneumoniae, 3 h.
Assay [2] relates to A. baumannii strain 98-37-09. The class given is cell-based, Acinetobacter baumannii. Conditions: 50 μM final drug concentration; for fold induction at 50 µM: Acinetobacter baumannii, 983709, 3 h.
The subject of another assay is P. aeruginosa. In kind it is cell-based, Pseudomonas aeruginosa. Conditions: 50 μM final drug concentration; for fold induction at 50 µM: Pseudomonas aeruginosa, 3 h.
The subject of the next assay is E. cloacae. In kind it is cell-based, Enterobacter cloacae. Conditions: 50 μM final drug concentration; for fold induction at 50 µM: Enterobacter cloacae, 3 h.
The test system of another assay is E. coli. In kind it is cell-based, Escherichia coli. Conditions: 50 μM final drug concentration; for fold induction at 50 µM: Escherichia coli, 3 h.
[3] abbreviates: planktonic E. faecium, cutoff for positive-scoring molecules 3-fold increase, read-out: AK-based Prestwick Library Screening Results, E. faecium (increase in extracellular AK activity).
Where [4] appears, read: planktonic S. aureus, cutoff for positive-scoring molecules 3-fold increase, read-out: AK-based Prestwick Library Screening Results, S. aureus (increase in extracellular AK activity).
Where [5] appears, read: planktonic K. pneumoniae, cutoff for positive-scoring molecules 3-fold increase, read-out: AK-based Prestwick Library Screening Results, K. pneumoniae (increase in extracellular AK activity).
Setting [6] is: planktonic A. baumannii, cutoff for positive-scoring molecules 3-fold increase, read-out: AK-based Prestwick Library Screening Results, A. baumannii (increase in extracellular AK activity).
[7] abbreviates: planktonic P. aeruginosa, cutoff for positive-scoring molecules 3-fold increase, read-out: AK-based Prestwick Library Screening Results, P. aeruginosa (increase in extracellular AK activity).
Where [8] appears, read: planktonic E. cloacae, cutoff for positive-scoring molecules 3-fold increase, read-out: AK-based Prestwick Library Screening Results, E. cloacae (increase in extracellular AK activity).
Setting [9] is: planktonic E. coli, cutoff for positive-scoring molecules 3-fold increase, read-out: AK-based Prestwick Library Screening Results, E. coli (increase in extracellular AK activity).
Where [10] appears, read: 384-well format, cutoff for positive-scoring molecules 3-fold increase, read-out: AK-based Prestwick Library Screening Results, E. faecium (increase in extracellular AK activity).
The mark [11] stands for this setting: 384-well format, cutoff for positive-scoring molecules 3-fold increase, read-out: AK-based Prestwick Library Screening Results, S. aureus (increase in extracellular AK activity).
[12] abbreviates: 384-well format, cutoff for positive-scoring molecules 3-fold increase, read-out: AK-based Prestwick Library Screening Results, K. pneumoniae (increase in extracellular AK activity).
Where [13] appears, read: 384-well format, cutoff for positive-scoring molecules 3-fold increase, read-out: AK-based Prestwick Library Screening Results, A. baumannii (increase in extracellular AK activity).
[14] abbreviates: 384-well format, cutoff for positive-scoring molecules 3-fold increase, read-out: AK-based Prestwick Library Screening Results, P. aeruginosa (increase in extracellular AK activity).
Setting [15] is: 384-well format, cutoff for positive-scoring molecules 3-fold increase, read-out: AK-based Prestwick Library Screening Results, E. cloacae (increase in extracellular AK activity).
Where [16] appears, read: 384-well format, cutoff for positive-scoring molecules 3-fold increase, read-out: AK-based Prestwick Library Screening Results, E. coli (increase in extracellular AK activity).

Where a name gives a salt, the structure may show the parent alone. Read-outs that look alike come from different tables or passages of the source.

With `C=CC(N)CCC(=O)O` (centres unmarked) [Vigabatrin], the fold induction at 50 µM amounted to 0.9 in the assay on E. faecium (setting [3]); 0.7 in assay [1] (setting [4]); 0.8 in the assay with K. pneumoniae (setting [5]); 1.1 in assay [2] (setting [6]); 0.9 with P. aeruginosa (setting [7]); 0.8 in the assay with E. cloacae (setting [8]). In the assay with E. coli (setting [9]), the fold induction at 50 µM is 1.
Turning to `CC[C@]12CCCN3CCc4c(n(c5ccccc45)[C@@](O)(C(=O)OC)C1)[C@@H]32` [Vincamine], the fold induction at 50 µM with E. faecium (setting [10]) is 0.9; in assay [1] (setting [11]), 0.7; in the assay on K. pneumoniae (setting [12]) it was 0.7; in assay [2] (setting [13]), 0.9; in the assay with P. aeruginosa (setting [14]), 1; in the assay on E. cloacae (setting [15]), 1.2. In the assay with E. coli (setting [16]), the fold induction at 50 µM turned out to be 0.9.
`CCOC(=O)C1=C[C@]2(CC)CCCN3CCc4c(n1c1ccccc41)[C@@H]32` [Vinpocetine]: the fold induction at 50 µM in the assay with E. faecium (setting [10]) stood at 1; in assay [1] (setting [11]), 0.8; with K. pneumoniae (setting [12]), 0.8; in assay [2] (setting [13]), 0.9; in the assay on P. aeruginosa (setting [14]) it was 1; in the assay with E. cloacae (setting [15]) it was 1. In addition, the fold induction at 50 µM with E. coli (setting [16]) is 0.9.
As to `O=c1cc(-c2ccc(O)cc2)oc2c([C@@H]3O[C@H](CO)[C@@H](O)[C@H](O)[C@H]3O)c(O)cc(O)c12` [Vitexin], the fold induction at 50 µM in the assay with E. faecium (planktonic, cutoff for positive-scoring molecules 3-fold increase, read-out: AK-based Prestwick Library Screening Results, E. faecium (fold increase in extracellular AK activity)) came out at 1; in assay [1] (planktonic, cutoff for positive-scoring molecules 3-fold increase, read-out: AK-based Prestwick Library Screening Results, S. aureus (fold increase in extracellular AK activity)) it was 0.7; in the assay on K. pneumoniae (planktonic, cutoff for positive-scoring molecules 3-fold increase, read-out: AK-based Prestwick Library Screening Results, K. pneumoniae (fold increase in extracellular AK activity)) it was 0.8; in assay [2] (planktonic, cutoff for positive-scoring molecules 3-fold increase, read-out: AK-based Prestwick Library Screening Results, A. baumannii (fold increase in extracellular AK activity)), 0.7; with P. aeruginosa (planktonic, cutoff for positive-scoring molecules 3-fold increase, read-out: AK-based Prestwick Library Screening Results, P. aeruginosa (fold increase in extracellular AK activity)) it was 0.8; in the assay on E. cloacae (planktonic, cutoff for positive-scoring molecules 3-fold increase, read-out: AK-based Prestwick Library Screening Results, E. cloacae (fold increase in extracellular AK activity)), 0.8. Besides, in the assay on E. coli (planktonic, […], read-out: AK-based Prestwick Library Screening Results, E. coli (fold increase in extracellular AK activity)), the fold induction at 50 µM is 0.8.
For the molecule `Cc1cccc(C)c1N=C1NCCCS1` [Xylazine], the fold induction at 50 µM in the assay on E. faecium (planktonic E. faecium, […], read-out: AK-based Prestwick Library Screening Results, E. faecium (increase in extracellular AK activity)) is 0.9; in assay [1] (planktonic S. aureus, […], read-out: AK-based Prestwick Library Screening Results, S. aureus (increase in extracellular AK activity)) it was 0.8; in the assay with K. pneumoniae (planktonic K. pneumoniae, […], read-out: AK-based Prestwick Library Screening Results, K. pneumoniae (increase in extracellular AK activity)), 0.7; in assay [2] (planktonic A. baumannii, […], read-out: AK-based Prestwick Library Screening Results, A. baumannii (increase in extracellular AK activity)) it was 0.9; in the assay with P. aeruginosa (planktonic P. aeruginosa, […], read-out: AK-based Prestwick Library Screening Results, P. aeruginosa (increase in extracellular AK activity)) it was 0.9; with E. cloacae (planktonic E. cloacae, […], read-out: AK-based Prestwick Library Screening Results, E. cloacae (increase in extracellular AK activity)), 1.4. Also, the fold induction at 50 µM with E. coli (planktonic E. coli, […], read-out: AK-based Prestwick Library Screening Results, E. coli (increase in extracellular AK activity)) was determined as 0.8.
For the molecule `Cc1cc(C(C)(C)C)cc(C)c1CC1=NCCN1` [Xylometazoline hydrochloride], the fold induction at 50 µM in the assay on E. faecium (planktonic E. faecium, 384-well, cutoff for positive-scoring molecules 3-fold increase, read-out: AK-based Prestwick Library Screening Results: E. faecium (increase in extracellular AK activity)) was 1; in assay [1] (planktonic S. aureus, 384-well, […], read-out: AK-based Prestwick Library Screening Results: S. aureus (increase in extracellular AK activity)), 1.2; in the assay on K. pneumoniae (planktonic K. pneumoniae, 384-well, cutoff for positive-scoring molecules 3-fold increase, read-out: AK-based Prestwick Library Screening Results: K. pneumoniae (increase in extracellular AK activity)) it was 0.9; in assay [2] (planktonic A. baumannii, 384-well, […], read-out: AK-based Prestwick Library Screening Results: A. baumannii (increase in extracellular AK activity)), 1.3; in the assay on P. aeruginosa (planktonic P. aeruginosa, 384-well, […], read-out: AK-based Prestwick Library Screening Results: P. aeruginosa (increase in extracellular AK activity)), 1.2; in the assay with E. cloacae (planktonic E. cloacae, 384-well, […], read-out: AK-based Prestwick Library Screening Results: E. cloacae (increase in extracellular AK activity)), 1.4. Moreover, the fold induction at 50 µM in the assay with E. coli (planktonic E. coli, 384-well, […], read-out: AK-based Prestwick Library Screening Results: E. coli (increase in extracellular AK activity)) is 1.2.
Turning to `COC(=O)[C@@H]1[C@H]2C[C@H]3c4[nH]c5ccccc5c4CCN3C[C@@H]2CC[C@@H]1O` [Yohimbine hydrochloride], the fold induction at 50 µM in the assay with E. faecium (setting [3]) was 0.9; in assay [1] (setting [4]), 0.6; in the assay on K. pneumoniae (setting [5]), 0.8; in assay [2] (setting [6]), 0.8; in the assay on P. aeruginosa (setting [7]), 0.9; in the assay with E. cloacae (setting [8]), 1. Moreover, the fold induction at 50 µM with E. coli (setting [9]) came out at 0.8.
With `O.O=C(O)[C@@H]1[C@H]2C[C@H]3c4[nH]c5ccccc5c4CCN3C[C@@H]2CC[C@@H]1O` [Yohimbinic acid monohydrate], the “AK-based Prestwick Library Screening Results, E. faecium (increase in extracellular AK activity)” value in the assay on E. faecium (planktonic E. faecium, […]) is reported as 0.9. Also, the “AK-based Prestwick Library Screening Results, S. aureus (increase in extracellular AK activity)” value in assay [1] (planktonic S. aureus, […]) is 0.7. Besides, in the assay on K. pneumoniae (planktonic K. pneumoniae, […]), the “AK-based Prestwick Library Screening Results, K. pneumoniae (increase in extracellular AK activity)” value amounted to 0.7. The “AK-based Prestwick Library Screening Results, A. baumannii (increase in extracellular AK activity)” value in assay [2] (planktonic A. baumannii, […]) is 0.8. For the same molecule, in the assay with P. aeruginosa (planktonic P. aeruginosa, […]), the “AK-based Prestwick Library Screening Results, P. aeruginosa (increase in extracellular AK activity)” value was found to be 0.9. Moreover, the “AK-based Prestwick Library Screening Results, E. cloacae (increase in extracellular AK activity)” value in the assay on E. cloacae (planktonic E. cloacae, […]) is given as 0.9. Moreover, in the assay on E. coli (planktonic E. coli, […]), the “AK-based Prestwick Library Screening Results, E. coli (increase in extracellular AK activity)” value turned out to be 0.9.

Source of the values: patent publication US10004701B2, “Methods and compositions for treating infection” (UNIVERSITY OF ROCHESTER, priority 2012, dated 2018).
